Test results published in ChEMBL document CHEMBL3132786, “Cytotoxic, immunomodulatory, antimycotic, and antiviral activities of semisynthetic 14-hydroxyabietane derivatives and triptoquinone C-4 epimers” (Medchemcomm, 2013).
Values after ≈ are worked out from the molar mass of the structure shown. Active and inactive are the calls of the source. No cut-off for these calls is given here.

Tests used:
[1] = Selectivity ratio of IC50 for african green monkey Vero cells to IC50 for human HeLa cells; type: ADME, cell-based; conditions: Vero cells versus HeLa cells, read-out: Ratio IC50
[2] = Selectivity ratio of IC50 for african green monkey Vero cells to IC50 for human Jurkat cells; type: ADME, cell-based; conditions: Vero cells versus Jurkat cells, read-out: Ratio IC50
[3] = tested on: HeLa; assay: Cytotoxicity against human HeLa cells after 48 hrs by MTT assay; type: functional, cell-based
[4] = tested on: Vero; assay: Cytotoxicity against african green monkey Vero cells after 48 hrs by MTT assay; type: cell-based; conditions: chlorocebus sabaeus
[5] = tested on: Jurkat; assay: Cytotoxicity against human Jurkat cells after 48 hrs by MTT assay; type: functional, cell-based
[6] = tested on: Aspergillus terreus; assay: Antifungal activity against Aspergillus terreus after 48 hrs by broth dilution method; type: functional
[7] = tested on: Aspergillus niger; assay: Antifungal activity against Aspergillus niger after 48 hrs by broth dilution method; type: functional
[8] = tested on: Aspergillus fumigatus; assay: Antifungal activity against Aspergillus fumigatus after 48 hrs by broth dilution method; type: functional
[9] = tested on: Aspergillus terreus; assay: Antifungal activity against Aspergillus terreus up to 100 ug/ml after 48 hrs by broth dilution method; type: functional, organism-based
[10] = tested on: Human alphaherpesvirus 1; assay: Antiviral activity against Herpes simplex virus type 1 infected in HeLa cells assessed as reduction in viral replication after 48 hrs; type: functional, organism-based
[11] = tested on: Aspergillus fumigatus; assay: Antifungal activity against Aspergillus fumigatus up to 100 ug/ml after 48 hrs by broth dilution method; type: functional, organism-based
[12] = tested on: Aspergillus flavus; assay: Antifungal activity against Aspergillus flavus up to 100 ug/ml after 48 hrs by broth dilution method; type: functional, organism-based
[13] = tested on: Aspergillus niger; assay: Antifungal activity against Aspergillus niger up to 100 ug/ml after 48 hrs by broth dilution method; type: functional, organism-based
[14] = tested on: PBMC; assay: Effect on membrane integrity in human PBMCs; type: ADME, cell-based
[15] = tested on: Monocyte; assay: Reduction in IL-10 production in human monocytes at 5 to 15 ug/ml after 24 hrs by cytometric bead array method; type: functional, cell-based
[16] = tested on: Monocyte; assay: Reduction in TNF-alpha production in human monocytes at 5 to 15 ug/ml after 24 hrs by cytometric bead array method; type: functional, cell-based
[17] = tested on: Monocyte; assay: Reduction in IL-1beta production in human monocytes at 5 to 15 ug/ml after 24 hrs by cytometric bead array method; type: functional, cell-based
[18] = tested on: Monocyte; assay: Reduction in LPS-induced IL-10 production in human monocytes at 5 to 15 ug/ml pretreated before LPS addition after 24 hrs by cytometric bead array method; type: functional, cell-based
[19] = tested on: Monocyte; assay: Reduction in LPS-induced TNF-alpha production in human monocytes at 5 to 15 ug/ml pretreated before LPS addition after 24 hrs by cytometric bead array method; type: functional, cell-based
[20] = tested on: Monocyte; assay: Reduction in LPS-induced IL-1beta production in human monocytes at 5 to 15 ug/ml pretreated before LPS addition after 24 hrs by cytometric bead array method; type: functional, cell-based
[21] = tested on: Monocyte; assay: Inhibition of differentiation of LPS-stimulated human monocytes assessed as reduction in expression of HLA-DR at 5 to 15 ug/ml after 120 hrs by fluorescence assay; type: functional, cell-based
[22] = tested on: Jurkat; assay: Induction of apoptosis in human Jurkat cells assessed as DNA damage at 14 ug/ml after 24 hrs by TUNEL assay; type: functional
[23] = tested on: Jurkat; assay: Induction of apoptosis in human Jurkat cells assessed as DNA damage at 14 ug/ml after 15 hrs by TUNEL assay; type: functional
[24] = tested on: PBMC; assay: Effect on cell cycle distribution in human PBMCs assessed as hypoploidy at 14 ug/ml after 15 to 24 hrs by flow cytometry; type: ADME, cell-based
[25] = tested on: PBMC; assay: Effect on cell cycle distribution in human PBMCs at 14 ug/ml after 15 to 24 hrs by flow cytometry; type: ADME, cell-based
[26] = tested on: Jurkat; assay: Cell cycle arrest in human Jurkat cells assessed as hypoploidy at 14 ug/ml after 24 hrs by flow cytometry; type: functional
[27] = tested on: Jurkat; assay: Cell cycle arrest in human Jurkat cells assessed as hypoploidy at 14 ug/ml after 15 hrs by flow cytometry; type: functional
[28] = tested on: Jurkat; assay: Cell cycle arrest in human Jurkat cells assessed as accumulation at G2/M phase at 14 ug/ml after 24 hrs by flow cytometry; type: functional
[29] = tested on: Jurkat; assay: Cell cycle arrest in human Jurkat cells assessed as accumulation at G2/M phase at 14 ug/ml after 15 hrs by flow cytometry; type: functional
[30] = tested on: Jurkat; assay: Cell cycle arrest in human Jurkat cells assessed as decrease in G0/G1 phase at 14 ug/ml after 15 to 24 hrs by flow cytometry; type: functional, cell-based
[31] = tested on: PBMC; assay: Induction of apoptosis in human PBMCs assessed as apoptotic cells at 14 ug/ml after 24 hrs by annexin V/PI-based flow cytometry; type: cell-based
[32] = tested on: PBMC; assay: Induction of apoptosis in human PBMCs assessed as apoptotic cells at 14 ug/ml after 15 hrs by annexin V/PI-based flow cytometry; type: cell-based
[33] = tested on: Jurkat; assay: Induction of apoptosis in human Jurkat cells assessed as apoptotic cells at 14 ug/ml after 24 hrs by annexin V/PI-based flow cytometry; type: functional
[34] = tested on: Jurkat; assay: Induction of apoptosis in human Jurkat cells assessed as apoptotic cells at 14 ug/ml after 15 hrs by annexin V/PI-based flow cytometry; type: functional
[35] = tested on: Jurkat; assay: Effect on membrane integrity in human Jurkat cells; type: functional, cell-based
[36] = tested on: PBMC; assay: Reduction in membrane potential in human PBMCs at 7 to 14 ug/ml after 15 to 24 hrs using DiOC6(3) by flow cytometry; type: ADME, cell-based
[37] = tested on: Jurkat; assay: Reduction in membrane potential in human Jurkat cells at 7 ug/ml after 15 to 24 hrs using DiOC6(3) by flow cytometry; type: functional, cell-based
[38] = tested on: Jurkat; assay: Reduction in membrane potential in human Jurkat cells at 14 ug/ml after 24 hrs using DiOC6(3) by flow cytometry; type: functional
[39] = tested on: Jurkat; assay: Reduction in membrane potential in human Jurkat cells at 14 ug/ml after 15 hrs using DiOC6(3) by flow cytometry; type: functional
[40] = tested on: PBMC; assay: Antiproliferative activity against PHA-stimulated human PBMCs assessed as CD69 expression at 1 to 14 ug/ml treated post PHA stimulation measured after 12 hrs by flow cytometry; type: cell-based
[41] = tested on: PBMC; assay: Antiproliferative activity against PHA-stimulated human PBMCs assessed as CD69 expression pretreated at 1 to 14 ug/ml before PHA stimulation measured after 12 hrs by flow cytometry; type: cell-based
[42] = Antiproliferative activity against PHA-stimulated human CD8+ T cells at 7 to 14 ug/ml after 72 hrs by CFSE fluorescence staining-based flow cytometry; conditions: t-cell
[43] = Antiproliferative activity against PHA-stimulated human CD4+ T cells at 7 to 14 ug/ml after 72 hrs by CFSE fluorescence staining-based flow cytometry; conditions: t-cell
[44] = tested on: PBMC; assay: Antiproliferative activity against human PBMCs at 7 to 14 ug/ml after 48 hrs by CFSE fluorescence staining-based flow cytometry; type: cell-based
[45] = tested on: PBMC; assay: Antiproliferative activity against human PBMCs at 14 ug/ml after 48 hrs by CFSE fluorescence staining-based flow cytometry; type: cell-based
[46] = tested on: PBMC; assay: Antiproliferative activity against human PBMCs at 7 ug/ml after 48 hrs by CFSE fluorescence staining-based flow cytometry; type: cell-based
[47] = tested on: PBMC; assay: Reduction in membrane potential in human PBMCs at 14 ug/ml after 24 hrs using DiOC6(3) by flow cytometry; type: ADME, cell-based; set-up: scale not given: the % may be the effect or the level left
[48] = tested on: PBMC; assay: Reduction in membrane potential in human PBMCs at 14 ug/ml after 15 hrs using DiOC6(3) by flow cytometry; type: ADME, cell-based; set-up: scale not given: the % may be the effect or the level left
[49] = Antiproliferative activity against PHA-stimulated human CD8+ T cells at 14 ug/ml after 72 hrs by CFSE fluorescence staining-based flow cytometry; conditions: t-cell
[50] = Antiproliferative activity against PHA-stimulated human CD4+ T cells at 14 ug/ml after 72 hrs by CFSE fluorescence staining-based flow cytometry; conditions: t-cell

CC(C)c1ccc2c(c1O)CC[C@H]1[C@](C)(CO)CCC[C@]21C
selectivity ratio [1]: 0.71 | selectivity ratio [2]: 2.3 | inhibition [3]: Dose-dependent effect | inhibition (INH) [4]: Dose-dependent effect | inhibition [5]: Dose-dependent effect | MIC [6]: 25 µg/mL (≈ 82.7 µM) | MIC [7]: 50 µg/mL (≈ 165 µM) | MIC [8]: 25 µg/mL (≈ 82.7 µM) | Activity [9]: inactive | Activity [10]: inactive | Activity [11]: inactive | Activity [12]: inactive | Activity [13]: inactive

CC(C)C1=CC(=O)C2=C(CC[C@H]3[C@](C)(C(=O)O)CCC[C@]23C)C1=O
Activity [14]: Non-toxic | selectivity ratio [1]: 4.74 | selectivity ratio [2]: 8.96 | Activity [15]: inactive | Activity [16]: inactive | Activity [17]: inactive | Activity [18]: Active | Activity [19]: Active | Activity [20]: Active | Activity [21]: Active | Activity [22]: inactive | Activity [23]: inactive | Activity [24]: Non-toxic | Activity [25]: Non-toxic | Activity [26]: inactive | Activity [27]: inactive | Activity [28]: inactive | Activity [29]: inactive | Activity [30]: inactive | Activity [31]: Toxic | Activity [32]: Toxic | Activity [33]: Active | Activity [34]: Active | Activity [35]: inactive | Activity [36]: Non-toxic | Activity [37]: inactive | Activity [38]: inactive | Activity [39]: inactive | Activity [40]: Non-toxic | Activity [41]: Non-toxic | Activity [42]: Non-toxic | Activity [43]: Non-toxic | Activity [44]: Non-toxic | inhibition [3]: Dose-dependent effect | inhibition (INH) [4]: Dose-dependent effect | inhibition [5]: Dose-dependent effect | Activity [9]: inactive | Activity [10]: inactive | Activity [11]: inactive | Activity [12]: inactive | Activity [13]: inactive

COC(=O)[C@]1(C)CCC[C@]2(C)C3=C(CC[C@@H]12)C(=O)C(C(C)C)=CC3=O
selectivity ratio [1]: 1.23 | selectivity ratio [2]: 2.34 | inhibition [3]: Dose-dependent effect | inhibition (INH) [4]: Dose-dependent effect | inhibition [5]: Dose-dependent effect | Activity [9]: inactive | Activity [10]: inactive | Activity [11]: inactive | Activity [12]: inactive | Activity [13]: inactive

CC(C)C1=CC(=O)C2=C(CC[C@H]3[C@](C)(CO)CCC[C@]23C)C1=O
Activity [14]: Non-toxic | Activity [45]: 82% | Activity [46]: 77% | selectivity ratio [1]: 1 | selectivity ratio [2]: 5.46 | Activity [15]: inactive | Activity [16]: inactive | Activity [17]: inactive | Activity [18]: Active | Activity [19]: Active | Activity [20]: Active | Activity [21]: Active | Activity [22]: 35% | Activity [23]: 10% | Activity [24]: Non-toxic | Activity [25]: Non-toxic | Activity [26]: 35% | Activity [27]: 12% | Activity [28]: 15% | Activity [29]: 13% | Activity [30]: Active | Activity [31]: 90% | Activity [32]: 75% | Activity [33]: 86% | Activity [34]: 26% | Activity [47]: 90% | Activity [35]: inactive | Activity [48]: 20% | Activity [37]: inactive | Activity [38]: 25% | Activity [39]: 15% | Activity [40]: Non-toxic | Activity [41]: Non-toxic | Activity [49]: 77% | Activity [50]: 88% | Activity [42]: Non-toxic | Activity [43]: Non-toxic | inhibition [3]: Dose-dependent effect | inhibition (INH) [4]: Dose-dependent effect | inhibition [5]: Dose-dependent effect | Activity [9]: inactive | Activity [10]: inactive | Activity [11]: inactive | Activity [12]: inactive | Activity [13]: inactive

CC(C)c1ccc2c(c1O)CC[C@H]1[C@](C)(C(=O)O)CCC[C@]21C
selectivity ratio [1]: 0.77 | selectivity ratio [2]: 3.09 | inhibition [3]: Dose-dependent effect | inhibition (INH) [4]: Dose-dependent effect | inhibition [5]: Dose-dependent effect | Activity [9]: inactive | Activity [10]: inactive | Activity [11]: inactive | Activity [12]: inactive | Activity [13]: inactive

COC(=O)[C@]1(C)CCC[C@]2(C)c3ccc(C(C)C)c(O)c3CC[C@@H]12
selectivity ratio [1]: 1.9 | selectivity ratio [2]: 2.59 | inhibition [3]: Dose-dependent effect | inhibition (INH) [4]: Dose-dependent effect | inhibition [5]: Dose-dependent effect | Activity [9]: inactive | Activity [10]: inactive | Activity [11]: inactive | Activity [12]: inactive | Activity [13]: inactive
